Here are results for one compound from patent US20260297136A1, “PEPTIDES WITH LIPOLYTIC, ANTI-LIPOGENIC, ANTIFIBROTIC AND ANTI-INFLAMMATORY ACTIVITY” (FUNDACIÓ HOSPITAL UNIVERSITARI VALL D'HEBRON - INSTITUT DE …, priority 2023, published 2026).

Assay [1] deals with obesity and fatty liver disease mouse model. Description: Preventive effects in an obesity and fatty liver disease mouse model, Example 4. The format is in vivo, C57BL6/J male mice. The conditions noted are these: 20 mg/kg/day sc, 8 weeks. As for the experimental part: C57BL6/J male mice were purchased and kept for quarantine and acclimatization for a period of about 7 days before initiation of every experiment. Mice were housed in clean and sterilized mice cages and maintained in a controlled environment with 22+3° C. temperature, 50+20% humidity, a light/dark cycle of 12 hours each and 15-20 fresh air changes per hour.
For Obesity and NAFLD induction, the animals were fed ad libitum, either with chow diet (150SP-10, Safe Diets) or 45% high-fat diet (TD.190179, Envigo) plus 30% fructose (F0127, Sigma Aldrich) in drinking water for 8 weeks in the daily presence of vehicle or a subcutaneous injection of GP6 (20 mg/kg/day). A group of mice (n=18) was randomly divided in two groups of 9 mice each. Both groups were fed with high fat diet and 30% fructose in the drinking water for 8 weeks to develop obesity and fatty liver disease. One group was treated with daily subcutaneous injections of vehicle (water) and the other with daily subcutaneous injection of GP6 (20 mg/kg/day) during the 8 weeks that last the experiment.
At the end of the experiment mice were sacrificed, serum samples were extracted, tissues were weighted and part was fixed in paraformaldehyde for histology studies and part immediately frozen at −80 C for mRNA and protein expression studies as well as assessment of triglycerides.
For histological studies, livers and adipose tissue were fixed in 4% paraformaldehyde for 24 hours and embedded in paraffin. Serial […] sections were used for histological examination and stained with hematoxylin eosin (H&E) and Picrosirius red for histological examination following standard procedures. Briefly, sections were alcohol-xylol hydrated at room temperature, and subsequently, they were stained at room temperature in a solution of 0.1% Direct Red 80 (Sigma-Aldrich) in a saturated aqueous solution of [COMPOUND LEFT OUT] (Sigma-Aldrich) for 1 h. Following that, sections were rinsed twice in 0.5% acetic acid or 5 min, alcohol-xylol dehydrated and covered with Eukitt mounting medium (Sigma-Aldrich). These sections were examined with an Olympus BX61 microscope. Six random fields at 4× magnification from each slice were quantified using ImageJ software to determine the liver collagen deposition as the red stained area in the image. The stage of liver steatosis and/or fibrosis was assessed blinded by an experienced pathologist according to the NASH-clinical research network scoring system (Design and validation of a histological scoring system for nonalcoholic fatty liver disease. Kleiner D E, Brunt E M, Van Natta M, Behling C, Contos MJ, Cummings O W, Ferrell L D, Liu Y C, Torbenson M S, Unalp-Arida A, Yeh M, McCullough A J, Sanyal AJ; Nonalcoholic Steatohepatitis Clinical Research Network. Hepatology. 2005 June; 41(6):1313-21. doi: 10.1002/hep.20701; Transforming growth factor-beta 1: A new factor reducing hepatic SHBG production in liver fibrosis. Briansó-Llort L, Fuertes-Rioja L, Ramos-Perez L, Salcedo-Allende M T, Hernandez C, Simo R, Selva D M. J Cell Physiol. 2022 September; 237(9):3598-3613. doi: 10.1002/jcp.30818). […]
Hepatic TG content was measured from liver extracts using a Triglyceride Assay Kit (ab65336) following the manufacture's instructions.
Total RNA was extracted from mouse tissues using TRIzol reagent (Invitrogen SA). Reverse transcription was performed at 42° C. for 50 minutes using […] of total RNA, 200 U of Superscript II, and an oligo-dT primer and reagents provided by Invitrogen. An aliquot of the reverse transcription product was amplified in a […] reaction using SYBRGreen (Invitrogen SA) with appropriate oligonucleotide primer pairs corresponding mouse ACC, FAS, ACLY, PPARG, Col1A1, F4/80, TNFα, IL1β, IL6, TGFβ1, Leptin, Adiponectin and 18S (shown in table 7). […]

The next assay deals with HepG2 cells. Briefly: Hepatic lipogenesis gene expression in HepG2 cells (24 h), Example 7. Format: cell-based, human. The conditions noted are these: 40 μg/ml, vs vehicle. The source says:
FIG. 32. Effect of GP6 and modified peptides on hepatic lipogenesis in HepG2 cells. Each bar within each group represents mRNA levels of a key hepatic lipogenic enzyme, from left to right: Acetyl-CoA Carboxylase (ACC), ATP Citrate Lyase (ACLY) and Fatty Acid Synthase (FAS), and a key transcription factor regulating several lipogenic enzymes such as PPARγ (PPARγ).
Cell culture reagents were from Life Technologies Inc (Invitrogen SA, Barcelona, Spain). HepG2 hepatoblastoma cells (cat. no. HB-8065; ATCC, LGC Standards SLU, Barcelona, Spain) were maintained in Dulbecco's modified Eagle medium (DMEM) supplemented with 10% fetal bovine serum and antibiotics.
• HepG2 cells were cultured for 5 day in the absence or presence of 30 mM fructose. Cells cultured in 30 mM fructose were daily treated with vehicle, Telmisartan, Semaglutide or EDL6D. • HepG2 cells were cultured for 24 h in the absence or presence of GP6 (40 μg/ml), GP10 (40 μg/ml), GP11 (40 μg/ml), GP12 (40 μg/ml), GP13 (40 μg/ml) or SHBG (20 nM). • HepG2 cells were cultured in the absence or presence of 30 mM fructose and treated for 2 h with vehicle or GP4 (40 μg/ml), GP6 (40 μg/ml), GP7 (40 μg/ml), GP8 (40 μg/ml), GP9 (40 μg/ml), GP10 (40 μg/ml), GP11 (40 μg/ml), GP12 (40 μg/ml), GP13 (40 μg/ml) or SHBG (20 nM).
Total RNA was extracted from HepG2 and LX-2 cells using TRIzol reagent (Invitrogen SA). Reverse transcription was performed at 42° C. for 50 minutes using […] of total RNA, 200 U of Superscript II, and an oligo-dT primer and reagents provided by Invitrogen. An aliquot of the reverse transcription product was amplified in a […] reaction using SYBRGreen (Invitrogen SA) with appropriate oligonucleotide primer pairs corresponding to human SHBG, ACC, FAS, ACLY, PPARG, and 18S and mouse ACC, FAS, ACLY, PPARG, Col1A1 and 18S. Results were analyzed using the 7000 Sequence Detection System program (Applied Biosystems, Thermo Fisher Scientific, Barcelona, Spain) (Shez-Lopez et al Endocrinology 2017).

Where [2] appears, read: blind pathologist, histology reduction confirmed.

Each structure is given as a SMILES string.

Consider `CC[C@@H](C)[C@@H](NC(=O)[C@H](NC(=O)CNC(=O)[C@@H](CCC(=O)O)NC(=O)[C@H]1CCCN1C(=O)[C@@H](CC(=O)O)NC(=O)[C@@H](Cc1c[nH]c2ccccc12)NC(=O)[C@H](NC(=O)[C@@H](CCCNC(=N)N)NC(=O)[C@H](NC(=O)[C@@H](CCC(=O)O)NC(=O)[C@@H](Cc1ccccc1)NC(=O)[C@@H](CO)NC(=O)[C@@H](CO)NC(=O)[C@@H](CO)NC(=O)[C@H](NC(=O)[C@@H](CCCCN)NC(=O)[C@H](N)[C@H](C)O)[C@H](C)O)C(C)C)[C@H](C)O)C(C)C)C(=O)N[C@H](Cc1ccccc1)C(=O)N[C@H](Cc1ccc(O)cc1)C(=O)O` [GP6], for which, in assay [1] (vs vehicle), the “ACC mRNA levels in liver” value was “reduced the mRNA levels”, the “F480 mRNA levels in adipose tissue” value is listed as “reduced expression”, the “F480 mRNA levels in hepatic tissue” value is “reduced expression” and the “FAS mRNA levels in liver” value was “reduced the mRNA levels”. Also, in assay [1] (vs vehicle), the “PPARγ mRNA levels in liver” value was “reduced the mRNA levels”, the Total body weight entry is listed as “significantly reduced”, the “adipose tissue fibrosis (Col1A1 mRNA expression in adipose tissue)” value is listed as “reduced adipose tissue fibrosis” and the “hepatic expression of IL1β” value is reported as “reduced the hepatic expression”. In assay [1] (vs vehicle), the “hepatic expression of IL6” value is given as “reduced the hepatic expression”, the “hepatic expression of TNFα” value is “reduced the hepatic expression”, the total liver weight entry is recorded as “significantly reduced” and the “weight increment (weight at week 8-weight at week 0)” value is “significantly reduced”. In assay [1] (vs vehicle), the “weight of brown adipose tissue” value is listed as “significantly reduced”, the “weight of subcutaneous adipose tissue” value is given as “significantly reduced” and the “weight of visceral adipose tissue” value is reported as “significantly reduced”. In assay [1] (vs vehicle, H&E), the “hepatic lipid accumulation (histology)” value was “reduced significantly”. For the same compound, in assay [1] (setting [2]), the Brunt score result is listed as “confirmed”, the Steatosis score result is on record as “confirmed” and the percentage of steatosis entry is “confirmed”. The “hepatic triglyceride content (Liver TAG)” value in assay [1] (histology reduction confirmed) is given as “confirmed”. Also, in the assay with HepG2 cells, the “ACC mRNA levels” value is given as “reduced the mRNA levels”, the “ACLY mRNA levels” value is given as “reduced the mRNA levels”, the “FAS mRNA levels” value is “reduced the mRNA levels” and the “PPARγ mRNA levels” value is on record as “reduced the mRNA levels”.
